The values that follow come from US8129413B2, “Crystalline forms of MC4R agonist and process for synthesis” (Merck Sharp & Dohme Corp., priority 2005, dated 2012).

What all share (type): physicochemical
A short description of series [1]: Storage stability of the free base.
The nature of series [2]: Crystal form conversion on exposure to relative humidity. Here is the method: (§1) Method 2 Drying the crystalline hydrate mono HCl salt of Compound I (1-7) at a temperature over about 4° C. and relative a humidity less than about 10% yields the crystalline anhydrous mono HCl salt Form I of Compound I (1-5). The crystalline hydrate mono HCl salt of Compound I (1-7) converts to the crystalline anhydrous mono HCl salt Form I of Compound I (1-5) by means of a continuous change; as the crystalline hydrate is dried, the x-ray diffraction pattern, solid-state carbon-13 CPMAS, and solid-state fluorine-19 MAS patterns merge from the crystalline hydrate to crystalline anhydrous Form I. Incomplete conversion to the anhydrous form I will yield a unique phase, not merely a mixture of crystalline anhydrous form I and crystalline hydrate.
Method 1 A solution of compound 1-3 from Example 1 (14.6 g, 26.7 mmol) in isopropyl acetate (91 ml, at 160 g/L) was agitated in vessel 1 at 15-25° C., and 0.5 N HCl/H2O solution (54.4 mL, 27.2 mmol) was added. The mixture was aged for 5-10 minutes with agitation followed by settling without agitation. The aqueous layer was removed and transferred to vessel 2. 20 ml of deionized water were charged to vessel 1, as a rinse of the isopropyl acetate layer. After agitating the isopropyl acetate-deionized water mixture for about 5 minutes, the aqueous layer was removed and combined with the aqueous layer in vessel 2. […]

Series [3] is described as follows: Thermodynamic stability and interconversion of crystalline forms. Here is the method: as §1

As to `CC(=O)N[C@@H](C)c1cc(Cl)ccc1C1CCN(C(=O)[C@@H]2CN(C(C)(C)C)C[C@H]2c2ccc(F)cc2F)CC1` [Compound I, N-{(1S)-1-[2-(1-{[(3S,4R)-1-tert-butyl-4-(2,4-difluorophenyl)pyrrolidin-3-yl]carbonyl}piperidin-4-yl)-5-chlorophenyl]ethyl}acetamide], the “stability of the solid form” value in series [1] (storage, light, heat) was “unstable, photosensitive and thermally sensitive”. In addition, the “storage temperature above which subject to oxidation” value in series [1] (stored) was “greater than −40 °C”. With `CC(=O)N[C@@H](C)c1cc(Cl)ccc1C1CCN(C(=O)C2CN(C(C)(C)C)C[C@H]2c2ccc(F)cc2F)CC1` (stereo partly drawn) [Compound 1-5], the “relative humidity at which anhydrous Form I converts to crystalline hydrate mono HCl salt” value in series [2] (exposure to humidity, continuous structural change) is reported as “greater than 20%”. For `CC(=O)N[C@@H](C)c1cc(Cl)ccc1C1CCN(C(=O)C2CN(C(C)(C)C)C[C@H]2c2ccc(F)cc2F)CC1` (stereo partly drawn) [Compound 1-7], the “thermodynamic stability among crystalline forms” value in series [3] (ambient conditions) is listed as “most thermodynamically stable crystalline form”. Moreover, the “relative humidity at which hydrate converts to anhydrous mono HCl salt Form I” value in series [2] (drying at a temperature over about 4° C.) was “less than 10%”.

With `CC(=O)N[C@@H](C)c1cc(Cl)ccc1C1CCN(C(=O)C2CN(C(C)(C)C)C[C@H]2c2ccc(F)cc2F)CC1` (stereo partly drawn) [Compound 1-6], the “physical stability of the crystal form (conversion to another form)” value in series [3] (room temperature) is listed as “converts to crystalline anhydrous mono HCl salt Form I (1-5) at room temperature”.
